Test results as given in patent US7261875B2, “Dendritic poly (amino acid) carriers and methods of use” (Board of Regents, The University of Texas System, priority 2001, dated 2007).

Legend:
SK-Br3 cells = assay: Fluorescence microscopy, non-specific interaction of near-infrared dyes with FR-negative cells; type: cell-based, human; settings: SK-Br3 cells (do not express FR), 30 minute incubation, 37° C.
Method: The folic acid receptors (FR)-mediated binding of near-infrared gluorescent conjugate PAMAM-PG16-ICG-folate was studied using a human nasopharyngeal epidermal carcinoma cell line KB and a human breast carcinoma cell line SK-BR3. KB cells over-express the FR, whereas SK-Br3 cells have no detectable […]. Cells were incubated with PAMAM-PG16-ICG-folate, indocyanine green (ICG, Sigma-Aldrich Corp. St. Louis, Mo.) or ICG-NH2 at 37° C. on cover clips in a 24-well place (Beckton Dickinson Labware, Franklin Kakes, N.J.). Each well contained 0.5 ml Dulbecco's Modified Eagle's medium/nutrient Mixture F-12 Ham (DMEM/F12) containing 10% FBS (Gibco, Grand Island, N.Y.). The final concentration of the conjugate was calculated based on the equivalent does of folic acid and ICG-NH2. For the blocking study, free folic acid was added to the culture medium 30 minutes prior to the addition of the test agents. […] Data were recorded by a Leica DMR microscope (Leica Microsystems Inc. Brannockburn, Ill.) equipped with a 75 W Xenon lamp, Indo-Cyanine Green and FITC filters (775/845 and 480/535, excitation/emission, respectively) (Chroma Technology Corp., Brattleboro, Vt.), Hamamatsue B/W Chilled CCD camera (Hamamatsu Photonics, K.K. Hamamamatsu City, Japan) and Image-Pro Plus 4.5.1 software (Media Cybernetics, L. P., Silver Spring, Md.). […]

[1] = test system: human vulvar squamous A431 cell line; assay: MTT assay, growth inhibition of A431 cells; type: cell-based; settings: A-431, 72 hrs continuous incubation, equivalent TXL concentrations, read-out: estimated IC50, growth inhibition
Method: The MTT assay was used to quantitatively compare the effects of PAMAM-PG8-TXL, linear PG-TXL, and paclitaxel on cell growth in a human vulvar squamous A431 cell line. Cells were plated in a 96-well plate at a density of 2000 cells/well and then incubated with various concentrations of paclitaxel, PAMAM-PG8-TXL, or linear PG-TXL.

[2] = Body weight loss after treatment; settings: 60 mg/kg, single i.v. dose
[3] = test system: syngeneic murine ovarian OCA-1 tumor; assay: Tumor growth delay after a single intravenous dose; settings: dose of 60 mg/kg, single i.v. dose, tumors 8 mm

Row | IC50 [1] | SMILES | fluorescence / non-specific interaction with cells (SK-Br3 cells) | body weight loss [2] | growth delay [3]
1 | – | CC1(C)C(/C=C/C=C/C=C/C=C2\N(CCCCS(=O)(=O)O)c3ccc4ccccc4c3C2(C)C)=[N+](CCCCS(=O)(=O)[O-])c2ccc3ccccc3c21 [ICG, indocyanine green] | did not have detectable non-specific interaction | – | –
2 | < 1 nM | CC(=O)O[C@H]1C(=O)[C@@]2(C)[C@H]([C@H](OC(=O)c3ccccc3)[C@]3(O)C[C@H](OC(=O)[C@H](O)[C@@H](NC(=O)c4ccccc4)c4ccccc4)C(C)=C1C3(C)C)[C@]1(OC(C)=O)CO[C@@H]1C[C@@H]2O [paclitaxel] | – | 10% | 14 days
